Values quoted from earlier work in patent EP4360619A1, “DOSAGE FORM FOR INTRA-ARTICULAR INJECTION […] AN […] IN THE TREATMENT OF CRYSTAL-AND NON-CRYSTAL […] IN[…]” (PK MED, priority 2022, dated 2024).

Conditions: literature (E.Niel et al)

In the case of COc1cc2c(c(OC)c1OC)-c1ccc(OC)c(=O)cc1[C@@H](NC(C)=O)CC2 [colchicine, N-[(7S)-1,2,3,10-tetramethoxy-9-oxo-6,7-dihydro-5H-benzo[a]heptalen-7-yl]acetamide], the lethal dose is given as 0.8 mg/kg and the toxicity limit is given as 0.1 mg/kg.
